The test system of experiment [1] is triglycerides. The following applies: low doses (500-1000 mg/day); cited from earlier work.
Experiment [2] concerns HDL cholesterol. The experiment is described as follows: Projected benefit on HDL cholesterol level (Table 5). In kind it is in vivo, patients. The following applies: expected range of benefits, CVD-specific nutraceutical regimen. An excerpt: (§1) The particular CVD-specific nutraceuticals and regimens herein disclosed were also designed to achieve a measurable benefit on lipid levels equivalent to those provided by many popular pharmaceutical drug therapies. The expected range of benefits (“NC” indicating no change) is projected as indicated below in Table 5. Given that all of the nutritional supplement ingredients used in the CVD-specific nutraceutical herein disclosed operate according to independent mechanisms, the cumulative effective on LDL cholesterol, HDL cholesterol, triglycerides and homocysteine levels would be additive and would not counteract each other or interfere with common CVD prescription pharmaceutical treatments.

In experiment [3] the test system is homocysteine. The experiment in a line: Projected benefit on homocysteine level (Table 5). In kind it is in vivo, patients. On the set-up: key: “NC” indicating no change. The following applies: expected benefit, class symbol.
Source text: as §1

Experiment [4] deals with LDL cholesterol. The following applies: higher doses (1000-3000 mg/day); cited from earlier work.
The test system of experiment [5] is triglycerides. The experiment in a line: Projected benefit on triglyceride level (Table 5). The conditions noted are these: expected range of benefits, CVD-specific nutraceutical regimen. In kind it is in vivo, patients.
Source text: as §1

Experiment [6] deals with HDL cholesterol. The conditions noted are these: low doses (500-1000 mg/day); cited from earlier work.
Experiment [7] relates to LDL cholesterol. The experiment is described as follows: Projected benefit on LDL cholesterol level (Table 5). Format: in vivo, patients. The conditions noted are these: expected benefit, class symbol. On the set-up: key: “NC” indicating no change.
Source text: as §1

Consider 1 compound from patent publication US20040009208A1, “Safe and effective nutritional supplement formulations and associated regimens adapted to prevent and/or treat targeted diseases or medical or health conditions, and related methods” (Vital Living, Inc., priority 2002, published 2004).

Molecules are shown by their SMILES.

Regarding `O=C(O)c1cccnc1` [Niacin], the effect on triglycerides entry in experiment [1] is “lower triglycerides”. Also, the HDL increase in experiment [2] is 5-10%. Further, the HOMOCYSTEINE result in experiment [3] is recorded as “NC”. The “effect on LDL cholesterol” value in experiment [4] is on record as “decrease LDL cholesterol modestly”. The TRIGLYCERIDES decrease in experiment [5] is given as 0-10%. Further, the “effect on HDL cholesterol” value in experiment [6] is “raise HDL cholesterol”. Moreover, the LDL result in experiment [7] is on record as “NC”.
